Data: patent US8642597B2, “Pyrazole compounds for controlling invertebrate pests” (BASF SE, priority 2007, dated 2014)

How the values were obtained:
Type in all cases: in vivo
[1] = system: Bean Aphid (Aphis fabae); assay: Bean aphid (Aphis fabae), nasturtium plant dip test; conditions: 72 h, after 3 days, in comparison with untreated controls
Description: (§1) The active compounds were formulated in 50:50 (vol:vol) acetone:water and 100 ppm Kinetica™ surfactant.
Nasturtium plants grown in Metro mix in the 1st leaf-pair stage (variety ‘Mixed Jewel’) were infested with approximately 2-30 laboratory-reared aphids by placing infested cut plants on top of the test plants. The cut plants were removed after 24 hr. Each plant was dipped into the test solution to provide complete coverage of the foliage, stem, protruding seed surface and surrounding cube surface and allowed to dry in the fume hood. The treated plants were kept at about 25° C. with continuous fluorescent light. Aphid mortality is determined after 3 days.

[2] = system: Boll Weevil (Anthonomus grandis); assay: Boll weevil (Anthonomus grandis), insect diet microtiter plate test; conditions: 120 h, concentration of the test solution 2500 mg/L, egg and larval mortality after 5 days
In short: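 Compounds in 75:25 water:DMSO sprayed at 20 μl onto insect diet in wells holding 20–30 eggs, several concentrations, two replicates. Incubation 5 days at 23±1° C, 50±5% RH, followed by visual scoring of egg and larval mortality.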

[3] = system: Cotton Aphid (aphis gossypii, Mixed Life Stages); assay: Cotton aphid (aphis gossypii, mixed life stages), cotyledon dip test; conditions: 120 h, mortality counts after 5 days, in comparison with untreated controls
In short: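 Cotton seedlings at the cotyledon stage were infested with mixed-stage aphids transferred overnight from infested leaves, then dipped in compound solution (50:50 acetone:water with 100 ppm surfactant) and dried. Mortality was counted after 5 days.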

[4] = system: Green Peach Aphid (Myzus persicae, Mixed Life Stages); assay: Green peach aphid (Myzus persicae, mixed life stages), pepper leaf dip test; conditions: foliar, 120 h, after 5 days, in comparison with untreated controls
In short: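 Pepper plants at the 2nd leaf-pair stage were infested with about 40 mixed-stage aphids, then leaf-dipped in graded concentrations of compound in 50:50 acetone:water with 100 ppm surfactant. Plants were held at about 25 °C, 20–40% RH, under 24 h light. Mortality relative to check plants was scored after 5 days.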

[5] = system: Cowpea Aphid (aphis craccivora); assay: Cowpea aphid (aphis craccivora), spray on potted cowpea plants; conditions: population reduction assessed after 24, 72 and 120 hours, in comparison with untreated controls
Procedure: The active compounds were formulated in 50:50 (vol:vol) acetone:water. The test solution was prepared at the day of use.
Potted cowpea plants colonized with 100-150 aphids of various stages were sprayed after the pest population had been recorded. Population reduction was assessed after 24, 72, and 120 hours.

[6] = system: Brown Planthopper (nilaparvata lugens); assay: Brown planthopper (nilaparvata lugens), rice seedling spray test; conditions: after 72 hours, in comparison with untreated controls
Procedure: The active compounds were formulated as a 50:50 (vol:vol) acetone:water solution. Surfactant (Alkamuls EL 620) was added at the rate of 0.1% (vol/vol).
Rice seedlings were cleaned and washed 24 h before spraying. Potted rice seedlings were sprayed with 5 ml test solution, air dried, placed in cages and inoculated with 10 adults. Treated rice plants were kept at 28-29° C. and relative humidity of 50-60%. Percent mortality was recorded after 72 hours.

[7] = system: Vetch Aphid (Megoura viciae); assay: Vetch aphid (Megoura viciae), bean leaf disk microtiterplate test; conditions: foliar, 144 h, concentration of the test solution 2500 mg/L, 6 days
In short: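 Bean leaf disks on 0.8% agar with 2.5 ppm OPUS™ were sprayed with compound in 1:3 DMSO:water, then infested with 5–8 adult aphids. Kept 6 days at 23±1 °C, 50±5% RH under fluorescent light. Mortality and fecundity were scored visually from vital, reproduced aphids.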

[8] = system: Silverleaf Whitefly (bemisia argentifolii, adult); assay: Silverleaf whitefly (bemisia argentifolii, adult), cotton cotyledon dip test; conditions: 72 h, 3 days after treatment, in comparison with untreated controls
Procedure: as §1
Selected cotton plants were grown to the cotyledon state (one plant per pot). The cotyledons were dipped into the test solution to provide complete coverage of the foliage and placed in a well-vented area to dry. Each pot with treated seedling was placed in a plastic cup and 10 to 12 whitefly adults (approximately 3-5 day old) were introduced. The insects were collected using an aspirator and an 0.6 cm, non-toxic Tygon® tubing (R-3603) connected to a barrier pipette tip. The tip, containing the collected insects, was then gently inserted into the soil containing the treated plant, allowing insects to crawl out of the tip to reach the foliage for feeding. The cups were covered with a reusable screened lid (150 micron mesh polyester screen PeCap from Tetko Inc). Test plants were maintained in the holding room at about 25° C. and 20-40% relative humidity for 3 days avoiding direct exposure to the fluorescent light (24 hour photoperiod) to prevent trapping of heat inside the cup. Mortality was assessed 3 days after treatment of the plants.

Q: With `Cn1cc(C(=O)Nc2cccnc2)c(C(F)(F)F)n1` [Compound 13, 1-methyl-3-trifluoromethyl-1H-pyrazole-4-carboxylic acid pyridin-3-ylamide] as the compound, how does the mortality at 10 ppm [1] read?
A: ≥ 90%

Q: And the mortality at 2500 µg/mL [2]?
A: ≥ 50%

Q: How did the mortality at 300 ppm [3] turn out when `CN(C(=O)c1cn(C(F)F)nc1C(F)(F)F)c1cccnc1` [Compound 195] was run?
A: ≥ 75%

Q: What about the mortality at 300 ppm [4] of the same compound?
A: ≥ 50%

Q: And the mortality at 300 ppm [5]?
A: ≥ 75%

Q: What about the mortality at 300 ppm [6] of the same compound?
A: ≥ 50%

Q: What about the mortality at 2500 µg/mL [7] of the same compound?
A: ≥ 80%

Q: For `O=C(Nc1cccnc1)c1cnn(-c2ccc(F)cc2)c1C(F)F` [Compound 94], which mortality at 300 ppm [3] is on record?
A: ≥ 75%

Q: And the mortality at 300 ppm [4]?
A: ≥ 50%

Q: What about the mortality at 300 ppm [5] of the same compound?
A: ≥ 75%

Q: And the mortality at 10 ppm [1]?
A: ≥ 90%

Q: What about the mortality at 2500 µg/mL [7] of the same compound?
A: ≥ 80%

Q: What about the mortality at 2500 µg/mL [2] of the same compound?
A: 100%

Q: With `Cc1c(C(=O)Nc2cccnc2)cnn1-c1nccs1` [Compound 116] as the compound, how does the mortality at 300 ppm [3] read?
A: ≥ 75%

Q: What about the mortality at 300 ppm [4] of the same compound?
A: ≥ 50%

Q: And the mortality at 300 ppm [5]?
A: ≥ 75%

Q: What about the mortality at 10 ppm [1] of the same compound?
A: ≥ 90%

Q: What about the mortality at 2500 µg/mL [7] of the same compound?
A: ≥ 80%

Q: What about the mortality at 2500 µg/mL [2] of the same compound?
A: 100%

Q: Which results are given for `CCc1c(C(=O)Nc2cccnc2)cnn1-c1ccc(Cl)cc1` [Compound 143]?
A: mortality at 300 ppm [3]: ≥ 75%; mortality at 300 ppm [4]: ≥ 50%; mortality at 300 ppm [5]: ≥ 75%; mortality at 10 ppm [1]: ≥ 90%; mortality at 2500 µg/mL [7]: ≥ 80%; mortality at 2500 µg/mL [2]: 100%

Q: `CN(C(=O)c1cn(C)nc1C(F)(F)F)c1cccnc1` [Compound 29, 1-Methyl-3-trifluoromethyl-1H-pyrazole-4-carboxylic acid methyl-pyridin-3-yl-amide] was tested. Which mortality at 300 ppm [3] did it give?
A: ≥ 75%

Q: And the mortality at 300 ppm [4]?
A: ≥ 50%

Q: What about the mortality at 300 ppm [5] of the same compound?
A: ≥ 75%

Q: And the mortality at 10 ppm [1]?
A: ≥ 90%

Q: And the mortality at 300 ppm [8]?
A: ≥ 50%

Q: What about the mortality at 2500 µg/mL [7] of the same compound?
A: ≥ 80%
